Test in all cases: NCI-60 cell line screen, 48 h
Experiment [1] deals with 786-0 renal.
Experiment [2] concerns A549 NSCLC.
Experiment [3] has as its system CAKI-1 renal.
The test system of experiment [4] is HL-60(TB) leukemia.
Experiment [5] has as its system IGROV1 ovarian.
Experiment [6] relates to OVCAR-5 ovarian.
The test system of experiment [7] is SF-295 CNS.
The test system of experiment [8] is SK-OV-3 ovarian.
In experiment [9] the test system is SR leukemia.

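Tested at 5 concentrations; 48 h exposure; 96-well plates; endpoints linearly interpolated, else capped at highest concentration. GI50 is the concentration that inhibits growth by half. TGI: concentration producing complete growth inhibition.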

Take `COC(=O)c1ccc2n[se]nc2c1`: the TGI in experiment [1], in experiment [2], in [3], in experiment [4], in experiment [5] and in experiment [6] was > 100 µM throughout. In addition, the TGI in experiment [7], in experiment [8] and in experiment [9] was > 100 µM in each case.
`O=C(N/C(=C\c1cc(Cl)ccc1Cl)c1nc2ccccc2[nH]1)c1ccccc1`: the TGI in experiment [1] is 35.7 µM; in experiment [2] it was > 100 µM; in experiment [3], > 100 µM; in [4] it was 67 µM; in experiment [6], > 100 µM; in experiment [7], > 100 µM. In addition, the results for the TGI in [8] and in experiment [9] were > 100 µM and 81.7 µM, respectively.
On to `COc1cc(C=C2C(=O)OC(C)(C)OC2=O)cc(OC)c1OC`, for which the TGI in experiment [1], in experiment [2], in experiment [3], in experiment [4], in [6] and in experiment [7] was > 100 µM throughout. The TGI in [8] and in experiment [9] was > 100 µM in each case.
Regarding `CC(=O)OC1CC[C@@]2(C)C(CC(OC3OC(CO)C(O)C(O)C3O)[C@]3(C)C2CCC24CC23CC[C@H]4C(C)CC(O)[C@@H](O)C(C)(C)O)C1(C)C` (some centres undefined), the TGI in experiment [1] is 30.7 µM; in experiment [2] it was > 50 µM; in experiment [3], > 50 µM; in experiment [4], 24.9 µM; in experiment [5], 22.1 µM; in experiment [6], > 50 µM. The TGI in [7] and in [8] was > 50 µM each time.
Consider `COC(=O)c1nc(N)[nH]c(=O)c1-c1ccc(Cl)cc1`, for which the TGI in experiment [1], in [2], in [3], in experiment [4], in experiment [5] and in experiment [6] was > 100 µM each time. Further, the TGI is > 100 µM in experiment [7], > 100 µM in experiment [8] and > 86.6 µM in experiment [9].
Take `Clc1cc(Cl)c2n[se]nc2c1`: the TGI in experiment [1], in experiment [2], in experiment [3], in experiment [4], in experiment [5] and in experiment [6] was > 100 µM in each case. In addition, the TGI in experiment [7], in [8] and in experiment [9] was > 100 µM in each case.
For the compound `COc1ncn(C2C=C(CO)C(O)C2O)c(=O)n1` (centres undefined), the TGI in experiment [1], in experiment [2], in experiment [4], in experiment [5] and in [8] was > 100 µM in each case.
Regarding `Cc1cc(C)cc(NC(=O)CCC(=O)C2CCC/C2=N\NC(=O)C(=O)NN)c1` (centres undefined), the TGI in experiment [1], in experiment [2], in experiment [3], in [4], in experiment [5] and in experiment [6] was > 100 µM each time. For the same compound, the TGI in experiment [7] and in experiment [8] was > 100 µM each time.
In the case of `O=C(/C=C(\O)C(=O)O)/C=C(\O)c1ccc(Cl)cc1`, the TGI in experiment [1], in [2], in experiment [3], in experiment [4], in experiment [5] and in experiment [6] was > 100 µM throughout. In addition, the TGI in [7], in experiment [8] and in [9] was > 100 µM each time.
With `COc1cc2c3c(c1OC)C1(C=CC(=O)C=C1)CC3N(C(=O)OC(C)(C)C(Cl)(Cl)Cl)CC2` (centres undefined), the TGI in experiment [1] is 28.8 µM; in experiment [2] it was 49.4 µM; in experiment [3] it was 50.9 µM; in experiment [4] it was 8.26 µM; in experiment [5] it was 41.9 µM; in [6], 38.4 µM. Further, the TGI in experiment [7] came out at 28.9 µM; in experiment [8], 96.9 µM; in [9] it was 23.4 µM.
With `COC(=O)CC[C@@H](NC(=O)C(C)NC(=O)COC1C(O)C(COC(=O)CCCCCCCCCCNC(=O)c2ccc([N+](=O)[O-])c3[nH]c4cc(Br)ccc4c(=O)c23)OC(OCc2ccccc2)C1NC(C)=O)C(N)=O` (some centres undefined), the TGI in [1] is > 100 µM; in [2] it was > 100 µM; in experiment [3] it was > 100 µM; in [4] it was 51.4 µM; in experiment [5], 49.8 µM; in [6], > 100 µM. The TGI in [7], in experiment [8] and in experiment [9] was > 100 µM throughout.
`NC(N)=Nc1nc2cc(N)ccc2o1`: the TGI in experiment [1], in [2], in [3], in experiment [4], in experiment [7] and in [8] was > 100 µM each time. Further, the TGI in experiment [9] is > 100 µM.
For the compound `COC1=C(C(=O)OC(C)(C)C)C23CCCCC2(C(C(=O)OC(C)(C)C)=C(OC)C3C(=O)OC(C)(C)C)C1C(=O)OC(C)(C)C` (centres undefined), the TGI in [1] was > 100 µM; in experiment [2] it was > 100 µM; in experiment [3], > 100 µM; in [4], 63.1 µM; in experiment [5], > 100 µM; in experiment [6], > 100 µM. The TGI in experiment [7], in experiment [8] and in [9] was > 100 µM each time.
Consider `O=C1/C=C(/c2ccc(O)cc2)[C@H](O)Cc2ccc(OC3OC(CO)C(O)C(O)C3O)cc2O1` (some centres undefined) (tested in a mixture with another compound), for which the TGI in experiment [1], in [2], in experiment [3], in experiment [4], in [5] and in experiment [6] was > 100 µM throughout. The TGI in experiment [7] and in experiment [8] was > 100 µM throughout.
As for `O=c1c2ccccc2oc2nccnc12`, the TGI in experiment [1], in [2], in experiment [3], in experiment [5], in experiment [6] and in [7] was > 100 µM each time. Also, the TGI in experiment [8] was > 100 µM.
On to `O=C(CC1Sc2ccccc2NC1=O)Nc1ccc([N+](=O)[O-])cc1[N+](=O)[O-]` (centres undefined), for which the TGI is 31.7 µM in experiment [1]; 88.7 µM in experiment [2]; 41.9 µM in [4]; 39.1 µM in experiment [5]; 62.3 µM in experiment [6]; 34.2 µM in experiment [7].
Turning to `CC(C)(C)NC(=O)C12C3C4C1C1C2C3C41I` (centres undefined), the TGI in [1], in experiment [2], in experiment [3], in experiment [4], in experiment [6] and in experiment [7] was > 100 µM throughout. Moreover, the TGI in experiment [9] is > 100 µM.
Regarding `CC(=O)OCC1OC(n2c(-c3ccc(N)cc3)cc(-c3ccco3)c(C#N)c2=O)C(OC(C)=O)C(OC(C)=O)C1OC(C)=O` (centres undefined), the TGI in experiment [1], in experiment [2], in [3], in [5], in [6] and in experiment [7] was > 50 µM in each case. The TGI in experiment [8] and in experiment [9] was > 50 µM each time.
`N#CC1(Cc2ccccc2Cl)c2ccccc2C=CN1C(=O)c1ccccc1` (centres undefined): the TGI in experiment [1], in experiment [2], in experiment [4], in experiment [5], in [6] and in [7] was > 100 µM throughout. In addition, the TGI in [8] and in experiment [9] was > 100 µM throughout.
In the case of `CCOc1cccc2cccnc12`, the TGI in experiment [1], in experiment [2], in experiment [4], in experiment [5], in [6] and in [7] was > 100 µM each time. In experiment [8], the TGI is > 100 µM.
Regarding `C[N+](C)(C)CC(=O)NC(=O)N/N=C\C(CC#N)CN(Cc1ccccc1)Cc1ccccc1` (centres undefined), the TGI in experiment [1], in [2], in [3], in experiment [4], in [5] and in [6] was > 100 µM in each case. Further, the TGI in experiment [7], in experiment [8] and in [9] was > 100 µM each time.
With `c1cc(C2O[C@H]3CCCN3[C@@H]2c2ccncc2)ccn1` (some centres undefined), the TGI in experiment [1], in experiment [2], in experiment [3], in experiment [5], in experiment [6] and in [7] was > 100 µM in each case. Further, in [8], the TGI is > 100 µM.
On to `COc1cc(OC)c(Oc2cccc(OC)c2OC)c(OC)c1`, for which the TGI in experiment [1], in [2], in experiment [3], in experiment [5], in experiment [6] and in [7] was > 100 µM throughout. Moreover, the TGI in experiment [8] and in experiment [9] was > 100 µM in each case.
Regarding `Cc1cc(C)c(-c2noc(-c3ccc(Cl)cc3)c2C2=NCCN2)c(C)c1`, the TGI in experiment [1] is 29.3 µM; in experiment [2] it was > 100 µM; in [3] it was > 100 µM; in experiment [4] it was 46.4 µM; in experiment [5], 76.7 µM; in [6] it was > 100 µM. Besides, the TGI in [7] was 27.6 µM; in experiment [8], > 100 µM; in experiment [9], 48 µM.
Turning to `O=C(Nc1ccc(Cl)cc1Cl)c1c/c(=N\O)c2ccc(O)cc2o1`, the TGI in experiment [1], in experiment [2], in experiment [3], in experiment [4], in experiment [5] and in [6] was > 100 µM throughout. Besides, the TGI in experiment [7], in experiment [8] and in [9] was > 100 µM each time.
In the case of `COc1ccc2c(c1)C(CCN)C(=O)N2` (centres undefined), the TGI in experiment [1], in experiment [2], in experiment [3], in experiment [4], in experiment [5] and in experiment [6] was > 100 µM throughout. The TGI in [7] and in [8] was > 100 µM throughout.
For the compound `O=C(/C=C/c1ccccc1O)CC(=O)/C=C/c1ccccc1O`, the TGI was 16.1 µM in [1]; 26.9 µM in experiment [2]; 29.9 µM in experiment [3]; 9.87 µM in [4]; 25.7 µM in [5]; > 31.6 µM in experiment [7]. In addition, in experiment [9], the TGI is > 25 µM.
For the compound `CCOC(=O)C(=C=Cc1cccs1)C(=O)c1ccccc1`, the TGI in experiment [1] came out at 29.5 µM; in experiment [2], 45.5 µM; in experiment [4], 80.9 µM; in experiment [5], 34.6 µM; in experiment [6], 28.5 µM; in experiment [7], 31.9 µM. Further, the TGI in experiment [8] was determined as 62.8 µM; in [9] it was 49 µM.
Consider `CC(C)CCC[C@@H](C)C1CCC2[C@@H]3CC=C4C[C@@H](OC(=O)CCC(=O)NCC[N+](C)(C)CCCS(=O)(=O)[O-])CC[C@]4(C)C3CC[C@@]21C` (some centres undefined), for which the TGI in experiment [1] is 67.9 µM; in experiment [2], 37.8 µM; in [3], > 100 µM; in experiment [4], 36.6 µM; in experiment [7] it was 31.6 µM; in experiment [8], > 100 µM.
For `COc1ccc(-c2cc(-c3ccco3)c(C#N)c(=O)n2C2OC(OC(=O)c3ccccc3)C(OC(=O)c3ccccc3)C2OC(=O)c2ccccc2)cc1` (centres undefined), the TGI in [1], in experiment [3], in experiment [5], in experiment [6], in experiment [7] and in experiment [9] was > 100 µM in each case.
With `Nc1ccc(Cl)cc1.Nc1ccc(Cl)cc1.Nc1ccc(Cl)cc1.O=C([O-])C(=O)[O-].O=C([O-])C(=O)[O-].[H+].[Ru+5]`, the GI50 in experiment [1] was 1.44 µM; in experiment [2], 0.351 µM; in [4] it was 0.104 µM; in experiment [5], > 100 µM; in [7], 0.127 µM; in [8], > 100 µM. The GI50 in experiment [9] is 0.023 µM. The TGI in experiment [1] was > 100 µM; in experiment [2], > 100 µM; in experiment [3] it was > 100 µM; in experiment [4] it was > 87.8 µM; in experiment [5], > 100 µM; in experiment [8], > 100 µM. In addition, the TGI in experiment [9] is > 100 µM.

The values above are taken from PubChem BioAssay (NCI).
